Data: patent publication US20210069230A1, “SYNERGISTIC DRUG COMBINATIONS PREDICTED FROM GENOMIC FEATURES AND SINGLE-AGENT RESPONSE PROFILES” (THE BROAD INSTITUTE, INC., priority 2018, published 2021)
Read-outs that look alike come from different tables or passages of the source. Blank lines part the entries; values can stand above or below the compound they belong to.

What was measured:
[1] = system: BT12 and G402 cells overexpressing SLC7A11; experiment: Lentiviral ORF overexpression, compound sensitivity (CellTiter-Glo, GR); type: cell-based; details: 72 hours
Description: (§1) Cell lines were taken from viably frozen stocks of the same original provenance as for CTRP and DepMap data, with identity confirmed by SNP-based DNA fingerprinting as described previously (12, 13, 39). Cell lines were propagated using the same media and culture conditions as for CTRPv2.0 experiments. […] For live-cell imaging, cells were plated into clear-bottom plates (Corning) and imaged on an IncuCyte S3 throughout the course of the experiment. For CellTiter-Glo experiments, the initial viability of a subset of plated cells was established at the same time as compound addition using CellTiter-Glo as described previously (24). […] DMSO- and D0-normalized concentration-response curves were generated using four-parameter nonlinear regression using the drc package in R (40). Biphasic curves were also fit and prioritized relative to standard four-parameter curves where appropriate using the BIC (Bayesian information criteria) metric. […] General-purpose optimization (Nelder-Mean algorithm) was used for single-agent fits, and the “model” option was used to predict variance. Overall significance was assessed using the bootstrapped meanR test (n=1000 iterations), and per-concentration significance using maxR, as described by the package authors.
(§2) Infection and selection were carried out according to GPP Viral Infection protocols, followed by cell seeding in 384-well plates for compound treatment or harvesting for Western blotting as described above.
(§3) Parental cell lines were virally transduced with cDNAs that constitutively overexpressed BCL2L1, AIFM2, or MGLL (in G402 and CJM cells); ABCB1 or MGMT (in WM2664 cells); SLC7A11 (in BT12 and G402 cells); MCL1 (in HCC1500 cells); or IRS2 (in T47D cells) and subsequently drug sensitivity was measured. To account for potential differences in growth rates and to distinguish between cytostatic and cytotoxic drug responses, the normalized growth rate inhibition (GR) metric was used to assess cell viability (FIG. 3A) (18).

[2] = system: G402 and CJM cells overexpressing AIFM2; experiment: as above; type: cell-based; details: 72 hours
Description: as §1, §2, §3

[3] = system: MEWO cell line; experiment: CRISPR-Cas9 knockout of AIFM2, response to compound; type: cell-based; details: four different sgRNAs
Description: (§4) Cas9 stably-infected HEC1A, MEWO, SUIT2, and WM2664 cells and sgRNAs (pXPR_BRD003 vector) targeting AIFM2, IRS2, MGLL, or control guides (non-cutting) were acquired from the GPP (FIG. 23). Cell line identities were confirmed to match parental cells using SNP fingerprinting. Virus was generated and infection carried out as described above. After puromycin selection (3 μg/mL for MEWO, 1.5 μg/mL for WM2664, 2 μg/mL for SUIT2 and HEC1A), cells were seeded in 384-well plates for compound treatment or harvested for Western blotting as described above.
(§5) As small-molecule inhibitors were not available for AIFM2 or IRS2, CRISPR-Cas9 was used to knock out these genes in proficient cell lines.

[4] = system: G402, G402-MGLL and KMRC3 cells; experiment: Chromatin-modifying compounds and GSK-J4 analogues with MGLL overexpression or JZL184 co-treatment; type: cell-based; details: for effect of JZL184 co-treatment on sensitivity: cells expressing MGLL
Description: as §1
To assess whether MGLL could augment sensitivity to other inhibitors of chromatin modifying enzymes, a panel of other small molecules annotated to inhibit chromatin-related processes, targeting other KDM proteins, histone deacetylases (HDACs), and histone methyltransferases (e.g., EZH2, DOT1L) was tested. […] The effects of a number of GSK-J4 analogues (FIG. 7B) were also tested.

[5] = system: WM2664 cells; experiment: CRISPR-Cas9 knockdown of IRS2, response to compound; type: cell-based
Description: as §4, §5

[6] = system: WM2664 cells overexpressing MGMT; experiment: Lentiviral ORF overexpression, compound sensitivity (live-cell imaging, GR); type: cell-based; details: 120 hours
Description: Cell lines were taken from viably frozen stocks of the same original provenance as for CTRP and DepMap data, with identity confirmed by SNP-based DNA fingerprinting as described previously (12, 13, 39). Cell lines were propagated using the same media and culture conditions as for CTRPv2.0 experiments. […] For live-cell imaging, cells were plated into clear-bottom plates (Corning) and imaged on an IncuCyte S3 throughout the course of the experiment. For CellTiter-Glo experiments, the initial viability of a subset of plated cells was established at the same time as compound addition using CellTiter-Glo as described previously (24). […] DMSO- and D0-normalized concentration-response curves were generated using four-parameter nonlinear regression using the drc package in R (40). […] Overall significance was assessed using the bootstrapped meanR test (n=1000 iterations), and per-concentration significance using maxR, as described by the package authors. […]
Parental cell lines were virally transduced with cDNAs that constitutively overexpressed BCL2L1, AIFM2, or MGLL (in G402 and CJM cells); ABCB1 or MGMT (in WM2664 cells); SLC7A11 (in BT12 and G402 cells); MCL1 (in HCC1500 cells); or IRS2 (in T47D cells) and subsequently drug sensitivity was measured. […]

[7] = system: WM2664 cells overexpressing ABCB1; experiment: Lentiviral ORF overexpression, compound sensitivity (CellTiter-Glo, GR); type: cell-based; details: 72 hours
Description: as §1, §2, §3

[8] = system: SIMA cell line; experiment: KX2-391 response versus ABCB1 expression and activity (elacridar co-treatment); type: cell-based
From the text: FIGS. 14A to 14S present supporting data for co-inhibition experiments across additional compounds and cellular models, further to FIG. 3 above. […] FIG. 14R presents dependency data from the DepMap portal (www.depmap.org) for BCL2L1 as a function of BCL2L1 expression (blue to red) and measured sensitivity (GR50) to the BCL2L1 inhibitor WEHI-539. FIG. 14S presents dependency data from the DepMap portal (www.depmap.org) for MCL1 as a function of […] (blue to red) and measured sensitivity (GR50) to the MCL1 inhibitor S63845.
The instant approach can therefore be applied and extended in a number of ways. First, it can be used to identify potential resistance mechanisms that may contribute to relapse in initially responsive settings. Second, it can be used to prioritize combinations for increased initial efficacy if the co-target biomarker is already present, or to de-prioritize single-agent treatment where it is likely to be less efficacious, particularly where alternatives might exist. For example, drug efflux pump expression (e.g., of ABCB1, encoding P-glycoprotein) has been observed as a clinical mechanism of resistance to various chemotherapeutics (30). ABCB1 inhibitors were discontinued from clinical development, largely due to challenges with selectivity and on-target toxicity (31). […]

[9] = system: type IIA topoisomerases; details: cited from earlier work
[10] = cited from earlier work
[11] = molecular target: MGLL (Homo sapiens, UniProt Q99685); experiment: Recombinant protein/mass spec assay of MGLL-mediated modification; type: biochemical
MGLL, sequence (Q99685 whole entry): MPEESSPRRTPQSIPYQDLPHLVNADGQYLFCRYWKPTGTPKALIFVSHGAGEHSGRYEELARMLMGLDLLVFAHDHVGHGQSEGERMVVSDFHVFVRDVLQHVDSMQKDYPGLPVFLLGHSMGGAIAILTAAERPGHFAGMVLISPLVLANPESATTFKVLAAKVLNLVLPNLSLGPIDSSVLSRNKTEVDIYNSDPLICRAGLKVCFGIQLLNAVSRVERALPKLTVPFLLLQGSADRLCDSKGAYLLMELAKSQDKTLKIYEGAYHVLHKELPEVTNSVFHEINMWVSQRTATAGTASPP
From the text: The GSK-J4-modifying impact of MGLL is examined further via a recombinant protein/mass spec assay.

[12] = system: KDM6 proteins; details: cited from earlier work
[13] = system: HCC1500 cells overexpressing MCL1; experiment: Lentiviral ORF overexpression, compound sensitivity (CellTiter-Glo, GR); type: cell-based; details: 72 hours
Description: as §1, §2, §3

[14] = system: cell lines with high expression of the nominated protein; experiment: 72-hour co-treatment of index compounds with co-target inhibitors; type: cell-based; details: single agent
Description: GAPDH was used as a loading control.
as §1

[15] = system: 27 cell lines; experiment: GSK-J4 with or without JZL184 in 27 cell lines (CellTiter-Glo); type: cell-based; details: individual validation experiments or the pooled PRISM assay
Description: as §1

[16] = molecular target: Monoacylglycerol lipase (MAGL) (Mus musculus, UniProt O35678); details: dose of 16 mg/kg; cited from earlier work
Monoacylglycerol lipase (MAGL), sequence (O35678 whole entry): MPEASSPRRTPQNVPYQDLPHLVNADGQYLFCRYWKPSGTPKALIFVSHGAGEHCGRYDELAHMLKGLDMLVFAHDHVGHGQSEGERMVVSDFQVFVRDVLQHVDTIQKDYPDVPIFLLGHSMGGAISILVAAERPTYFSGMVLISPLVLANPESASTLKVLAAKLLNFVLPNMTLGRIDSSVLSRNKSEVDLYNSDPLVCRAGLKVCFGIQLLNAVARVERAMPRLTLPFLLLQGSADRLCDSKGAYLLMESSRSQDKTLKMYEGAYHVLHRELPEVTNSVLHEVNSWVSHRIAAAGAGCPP

[17] = system: 242 cell lines in CTRPv1; details: JZL184 alone; cited from earlier work

Compound: Cc1onc(C(=O)N2CCN(C(c3ccc(Cl)cc3)c3ccc(Cl)cc3)CC2)c1[N+](=O)[O-] [ML210]
- resistance (GR50 shift) conferred by SLC7A11 overexpression [1]: 8 fold
- resistance (GR50 shift) conferred by AIFM2 overexpression [2]: > 500 fold
- effect of targeting AIFM2 with sgRNAs on response [3]: sensitization

Compound: CCOC(=O)CCNc1cc(N2CCc3ccccc3CC2)nc(-c2cccnc2)n1 [GSK-J5]
- effect of MGLL overexpression on toxicity [4]: reduced toxicity
- potency relative to GSK-J4 [4]: much less potent
- effect of JZL184 co-treatment on sensitivity [4]: sensitized by JZL184

Compound: CS(=O)(=O)N1CCN(Cc2cc3nc(-c4cccc5[nH]ncc45)nc(N4CCOCC4)c3s2)CC1 [pictilisib]
- effect of knockdown of IRS2 on response [5]: modest but consistent sensitization

Compound: O=NN(CCCl)C(=O)NCCCl [carmustine]
- resistance (GR50 shift) conferred by MGMT overexpression [6]: 4 fold

Compound: CC(=O)O[C@H]1C(=O)[C@@]2(C)[C@H]([C@H](OC(=O)c3ccccc3)[C@]3(O)C[C@H](OC(=O)[C@H](O)[C@@H](NC(=O)c4ccccc4)c4ccccc4)C(C)=C1C3(C)C)[C@]1(OC(C)=O)CO[C@@H]1C[C@@H]2O [paclitaxel]
- resistance (GR50 shift) conferred by ABCB1 overexpression [7]: 50 fold

Compound: O=C(Cc1ccc(-c2ccc(OCCN3CCOCC3)cc2)cn1)NCc1ccccc1 [KX2-391]
- relation of response to ABCB1 [8]: not correlated with ABCB1 expression or affected by the presence of active ABCB1 protein

Compound: O=C(O)c1cn(C2CC2)c2cc(N3CCNCC3)c(F)cc2c1=O [Ciprofloxacin]
- targets prokaryotes more than eukaryotic topo IIs [9]: in excess of a thousandfold

Compound: O=C(O)CCNc1cc(N2CCc3ccccc3CC2)nc(-c2ccccn2)n1 [GSK-J1]
- concentrations at which toxicity was shown [4]: > 20 µM
- effect of MGLL overexpression or JZL184 co-treatment/inhibition on toxicity [4]: not affected
- cellular permeability [10]: cell-impermeable

Compound: CC(C)(C)c1cnc(CSc2cnc(NC(=O)C3CCNCC3)s2)o1 [SNS-032]
- resistance (GR50 shift) conferred by ABCB1 overexpression [7]: 25 fold

Compound: O=C1C2CCN(CC2)C1(CO)CO [PRIMA-1]
- resistance (GR50 shift) conferred by SLC7A11 overexpression [1]: 20 fold
- resistance (GR50 shift) conferred by AIFM2 overexpression [2]: approximately threefold

Compound: CC[C@@H]1C(=O)N(C)c2cnc(Nc3ccc(C(=O)NC4CCN(C)CC4)cc3OC)nc2N1C1CCCC1 [BI-2536]
- resistance (GR50 shift) conferred by ABCB1 overexpression [7]: 40 fold

- MGLL-mediated modification [11]: no modification
Compound: OCCCNc1cc(N2CCc3ccccc3CC2)nc(-c2ccccn2)n1 [KDOBA67]
- toxicity relative to GSK-J4 ([4]; MGLL-deficient cell lines): equivalent toxicity
- effect of JZL184 co-treatment on sensitivity [4]: could not be further sensitized
- potency relative to GSK-J4 ([4]; resistant lines that expressed MGLL either endogenously or ectopically): more potent
- cellular permeability [10]: cell-permeable

Compound: O=C(O)CCNc1cc(N2CCc3ccccc3CC2)nc(-c2cccnc2)n1 [GSK-J2]
- effect of MGLL overexpression or JZL184 co-treatment/inhibition on toxicity [4]: not affected
- toxicity ([4]; at 80 μM): < 30%
- activity against KDM6 [12]: inactive

Compound: CC(C)=CC[C@@H](O)C1=CC(=O)c2c(O)ccc(O)c2C1=O [shikonin]
- resistance (GR50 shift) conferred by SLC7A11 overexpression [1]: 10 fold

Compound: CCOc1ccccc1-n1c(C(C)N2CCN(C(=O)COc3ccc(Cl)cc3)CC2)nc2ccccc2c1=O (stereo not drawn) [erastin]
- resistance (GR50 shift) conferred by SLC7A11 overexpression [1]: 30 fold

Compound: CC1(C)CCC(c2ccc(Cl)cc2)=C(CN2CCN(c3ccc(C(=O)NS(=O)(=O)c4ccc(N[C@H](CCN5CCOCC5)CSc5ccccc5)c(S(=O)(=O)C(F)(F)F)c4)cc3)CC2)C1 [navitoclax]
- resistance (GR50 shift) conferred by MCL1 overexpression [13]: 100 fold

Compound: O=C(Oc1ccc([N+](=O)[O-])cc1)N1CCC(C(O)(c2ccc3c(c2)OCO3)c2ccc3c(c2)OCO3)CC1 [JZL184, 4-nitrophenyl 4-(dibenzo[d][1,3]dioxol-5-yl(hydroxy)methyl)piperidine-1-carboxylate]
- growth impact of combination partner on its own [14]: only modest growth impact
- effects of JZL184 alone [15]: very modest effects
- blockade of MAGL [16]: near-complete blockade
- dose-dependent toxicity [17]: did not demonstrate dose-dependent toxicity
